How the values were obtained:
[1] = Cytotoxicity against human HuH7 cells by tetrazolium dye method; format: cell-based, Huh-7
Hepatitis C virus = assay: Antiviral activity against HCV infected in HuH7 cells after 3 days by luciferase reporter gene assay; format: functional, organism-based, Hepacivirus hominis; conditions: Huh-7, 72 h

Compound | CC50 [1] [µM] | EC50 (Hepatitis C virus) [µM]
Cc1ncnc2c1c(Br)cn2[C@@H]1C=C(CO)[C@@H](O)[C@H]1O | > 100 | 37.3
C#Cc1cn([C@@H]2C=C(CO)[C@@H](O)[C@H]2O)c2ncnc(C)c12 | > 100 | 67.7
Cc1ncnc2c1c(I)cn2[C@@H]1C=C(CO)[C@@H](O)[C@H]1O | > 100 | 46.2
Cc1ncnc2c1c(F)cn2[C@@H]1C=C(CO)[C@@H](O)[C@H]1O | > 100 | > 100
C=Cc1cn([C@@H]2C=C(CO)[C@@H](O)[C@H]2O)c2ncnc(C)c12 | 52.8 | 28
CCCCn1c(=O)c2cc(OC)ccc2c2cc(C(O)(C(F)(F)F)C(F)(F)F)c(OC)cc21 | > 10 | 0.17
Cc1ncnc2c1ccn2[C@@H]1C=C(CO)[C@@H](O)[C@H]1O | > 100 | > 100
Cc1ncnc2c1c(Cl)cn2[C@@H]1C=C(CO)[C@@H](O)[C@H]1O | > 100 | 41.7
